Legend:
SUMO-1 acetylation = assay: Modulation of SUMO-1 acetylation in H1299 cells expressing SUMO-1; type: cell-based, human; conditions: 500 nM TSA or 1 μM etoposide, versus untreated cells
Experimental: FIG. 3. SUMO-1 is acetylated when bound to its substrates. A. A polyclonal antibody raised against a SUMO-1 peptide SEIHF{Lys-Ac}[…] acetylated at K37 was raised and purified by peptide affinity purification. The specificity of this antibody was tested first in an in vitro acetylation reaction similar to that described in FIG. 2A. SUMO-1 was incubated in the presence (lane 3) or absence (lane 2) of CBP and cold Acetyl-coenzyme A. Lane 1 contains the acetylation reaction with CBP alone without SUMO-1. Samples were subjected to SDS electrophoresis, blotted on a PDF membrane, and probed with Ac-K37-Ab in immunoblot (upper panel). After chemi-luminescence, the membrane was stained with Comassie Brilliant Blue to reveal SUMO-1 (lower panel). B. Acetylation of SUMO-1 in vivo. Control H1299 cells (lanes 1 and 4) or H1299 expressing naïve SUMO-1 (lanes 2 and 5) or a SUMO-1 harboring lysine to arginine replacements at position K37-K39 and K45-K46-K48 (SUMOK37-K48R, lanes 3 and 6) were induced with tetracycline. […] Following electrophoresis and transfer, membranes were immuno-blotted with the Ac-K37-Ab (left panel, lanes 1-3). Forty micrograms of total cell extracts were probed with the anti-Flag antibody in direct immuno-blot (right panel, lanes 4-6). The position of free SUMO-1 and of SUMO-1 conjugated to RanGap is indicated by arrows. C. Modulation of SUMO-1 acetylation by deacetylases and by DNA damaging agents. H1299 cells expressing SUMO-1 were left untreated (lanes 1 and 5) or they were treated with 500 nM TSA (lanes 2 and 6), with 1 μM etoposide (lanes 3 and 7), or with 100 mM H2O2 (lanes 4 and 8). Cell extracts were prepared in RIPA buffer, immuno-precipitated with the anti-Flag antibody and processed in immuno-blot with the Ac-K37-Ab as described in B (lanes 1-4). Total cell extracts are shown in the right panel. The position of SUMO-1, RanGaP and of SUMO-1 conjugates is indicated. Full arrows indicate non specific reactivity of the Ac-K37-Ab with heavy and light chains of the anti-Flag immuno-precipitation.
Unless otherwise indicated, cell extracts were prepared in RIPA buffer (0.1% SDS; 50 mM Tris.Cl, pH 6.8; 150 mM NaCl; 0.5% Nonidet P-40; 2 mM EDTA) supplemented with protease a protease inhibitor mixture, with TSA (500 μM) and with […] NEM as an inhibitor of de-sumoylation. Treatment with etoposide was performed at […] overnight. When probed with the anti-SUMO or anti-acetyl-K37 antibody (37-1Ab) in direct immuno-blot, membranes where treated with 6 M Guanidine for 30 minutes, followed by incubation in blocking solution. The Ac-K37 (37-1Ab) antibody was used to a 1:500 dilution in direct immuno-blots on in vitro acetylation reactions (i.e., FIG. 3A) and to a 1:250 dilution for the experiments in cells and in murine tumors. […]

CBP [1] = molecular target: T1, CBP (Homo sapiens, UniProt Q92793); assay: Peptide competition of CBP-mediated acetylation of full-length SUMO-1; type: biochemical; conditions: cold acetylated peptide in 10 fold excess relatively to full length SUMO-1; 14C-acetyl CoA
T1 construct: purified SUMO-1 protein and the catalytic domain of several acetyltransferases, specifically of CBP and PCAF; purchased Biomol
T1 sequence (Q92793 1323-1700 limits assumed): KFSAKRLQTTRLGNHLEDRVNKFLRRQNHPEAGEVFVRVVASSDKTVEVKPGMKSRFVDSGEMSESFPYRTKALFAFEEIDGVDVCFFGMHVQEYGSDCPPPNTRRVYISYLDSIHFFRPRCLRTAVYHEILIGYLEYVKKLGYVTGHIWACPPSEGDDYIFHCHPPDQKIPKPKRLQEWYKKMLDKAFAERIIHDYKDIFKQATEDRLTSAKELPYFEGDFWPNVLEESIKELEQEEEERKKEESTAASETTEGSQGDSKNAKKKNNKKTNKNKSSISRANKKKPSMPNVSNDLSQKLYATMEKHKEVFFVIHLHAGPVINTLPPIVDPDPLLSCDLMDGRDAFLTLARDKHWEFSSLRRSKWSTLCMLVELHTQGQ
Experimental: (§1) FIG. 2. Identification of an acetylated domain of SUMO-1 conserved among SUMO family members. A. Purified SUMO1 was subjected to an in vitro acetylation reaction in the absence (lane 2) or presence (lane 3) of CBP, and of 14C-Acetyl-Coenzyme A. Lane 1 contain CBP in the absence of SUMO-1. Reactions were assembled in 30 μl volume, and developed with autoradiography. 1/20 of the reaction mixtures were run independently and proteins were visualized with Coomassie Brilliant Blue staining (lanes 4-6). The position of SUMO-1 and CBP is indicated by arrows. B. Peptide competition experiments. The following acetylated peptides were used: K25-K27:YIK(Ac)LK(Ac)VIG (lane 2); peptide K37-K39:HFK(Ac)VK(Ac)MTT (lane 3); peptide K45-K46-K48:HLK(Ac)K(Ac)LK(Ac)ES (lane 4). Lane 1 contains the acetylation reaction with a control peptide ([…]) and lane 5 contains the acetylation reaction without peptide(s). Polypeptides were incubated in a 10 fold excess relatively to full length SUMO-1. C. Identification of lysines residues acetylated in vitro and in vivo by mass spectrometry and alignment of acetylated residues in SUMO-1 with SUMO-2 and SUMO-3. Acetylated lysines of SUMO-1 are indicated by arrows and bolded in red, and conserved residues are shown. Based on the results of Mass Spectrometry we name the domain comprised between amino acid K37 to K48 SUMO-1 Acetylated Domain, or SAD. D. Acetylation of SUMO family members. Acetylation reactions were carried out as described in A. SUMO-1 (lanes 2, 5) SUMO-2 (lanes 3, 6), or SUMO-3 (lanes 4, 7) were subjected to an acetylation reaction in absence (lanes 2-4) or presence (lanes 5-7; indicated by +) of CBP. Lane 1 contains an acetylation reaction with CBP without SUMO proteins.
Acetylation reactions were typically assembled in a 30 μl volume, containing HAT buffer (1×25 mM Tris-HCl ph 7.9; 50 mM NaCl, 1 mM DTT), 6 μl of ^14C-Acetyl-Coenzyme A (Amersham) or cold Acetyl-Coenzyme A (lithium salt, from Roche), 1-2 μg CBP, 0.5-1 μg of SUMO proteins. […]

CBP [2] = molecular target: T1, CBP; assay: In vitro acetylation reaction with CBP; type: biochemical; conditions: purified protein, 14C-acetyl CoA, autoradiography
Experimental: as §1, with “proteins. […]” for “proteins.”
From the mass spectrometric analysis performed on the in vitro reactions, it was determined that CBP was able to acetylate the same residues that were found acetylated in vivo, specifically K37, K39 and K48. […]

PCAF = molecular target: T2, PCAF (Homo sapiens, UniProt Q92831); assay: In vitro acetylation reaction with PCAF; type: biochemical; conditions: purified protein, 14C-acetyl CoA
T2 construct: purified SUMO-1 protein and the catalytic domain of several acetyltransferases, specifically of CBP and PCAF
T2 sequence (Q92831 503-651 limits assumed, species assumed): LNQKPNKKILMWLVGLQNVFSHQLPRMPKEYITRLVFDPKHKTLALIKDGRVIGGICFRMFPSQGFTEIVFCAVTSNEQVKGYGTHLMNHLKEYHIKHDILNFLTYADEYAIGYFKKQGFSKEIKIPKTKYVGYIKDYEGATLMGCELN
Experimental: Acetylation reactions were typically assembled in a 30 μl volume, containing HAT buffer (1×25 mM Tris-HCl ph 7.9; 50 mM NaCl, 1 mM DTT), 6 μl of ^14C-Acetyl-Coenzyme A (Amersham) or cold Acetyl-Coenzyme A (lithium salt, from Roche), 1-2 μg CBP, 0.5-1 μg of SUMO proteins.
The discovery of such similarities implied that this SUMO-1 domain might functionally mimic the acetylated state of similar domains of transcription factors. Two approaches were used to determine if the identified SUMO-1 domain was acetylated. First, acetylation assays were performed in vitro using purified SUMO-1 protein and the catalytic domain of several acetyltransferases, specifically of CBP and PCAF, in the presence of 14C-acetyl CoA. […] To preliminarily map the site(s) of acetylation, we tested the ability of cold synthetic polypeptides corresponding to specific SUMO-1 regions, to inhibit CBP-mediated acetylation of the full-length protein in a reaction containing 14C-acetyl CoA.

H1299 cells = assay: Cell cycle analysis by flow cytometry; type: cell-based, human; conditions: H1299 cells infected with adenovirus expressing p53, 72 hours after infection
Experimental: FIG. 5. […] 72 hours after infection, cells were harvested and their cell cycle profile was analyzed (see materials and methods). B-C.
Flow cytometry was performed as described previously by Knights, C. D., et al. J. Cell Biol. 173(4):533-544 (2006).

Row | inhibition of CBP-mediated acetylation of full-length SUMO-1 (CBP [1]) | acetylation by CBP (CBP [2]) | Molecule | also measured
1 | – | – | CC(/C=C/C(=O)NO)=C\[C@@H](C)C(=O)c1ccc(N(C)C)cc1 [TSA] | acetylation signal on free SUMO-1 (SUMO-1 acetylation): stronger than that seen in untreated cells; levels of acetylation on RanGAP (SUMO-1 acetylation): only modestly influenced
2 | – | – | COc1cc([C@@H]2c3cc4c(cc3[C@@H](O[C@@H]3O[C@@H]5CO[C@@H](C)O[C@H]5[C@H](O)[C@H]3O)[C@H]3COC(=O)[C@H]23)OCO4)cc(OC)c1O [etoposide] | acetylation signal on free SUMO-1 (SUMO-1 acetylation): stronger than that seen in untreated cells; levels of acetylation on RanGAP (SUMO-1 acetylation): only modestly influenced
3 | completely blocked acetylation | – | HFK(Ac)VK(Ac)MTT [K37-K39] | –
4 | completely blocked acetylation | – | HLK(Ac)K(Ac)LK(Ac)ES [K45-K46-K48] | –
5 | – | efficiently acetylated | SUMO-1: small ubiquitin-like modifier protein, SEQ ID NO:1; purified from Biomol or Flag-tagged expressed in H1299 cells | acetylation by PCAF (PCAF): not by PCAF; apoptotic cells (H1299 cells): 15%
6 | – | robustly acetylated | SUMO-2: purified SUMO-2 from Biomol, SEQ ID NO:2 | –
7 | – | robustly acetylated | SUMO-3: purified SUMO-3 from Biomol, SEQ ID NO:3 | –
8 | only weakly abrogated | – | YIK(Ac)LK(Ac)VIG [K25 and K26] | –

From patent publication US20130288275A1, “COMPOSITIONS AND METHODS FOR DETECTING ACETYLATED SUMO PROTEINS” (Georgetown University, priority 2010, published 2013)
